This note sets out measurements from PMC8301926 (Biomolecules, 2021).

The target in assay [1] is T1, human M4 muscarinic acetylcholine receptor (hM4R) (Homo sapiens, UniProt P08173).
T1 construct: host or cells: CHO cells
T1 sequence (P08173 1-479): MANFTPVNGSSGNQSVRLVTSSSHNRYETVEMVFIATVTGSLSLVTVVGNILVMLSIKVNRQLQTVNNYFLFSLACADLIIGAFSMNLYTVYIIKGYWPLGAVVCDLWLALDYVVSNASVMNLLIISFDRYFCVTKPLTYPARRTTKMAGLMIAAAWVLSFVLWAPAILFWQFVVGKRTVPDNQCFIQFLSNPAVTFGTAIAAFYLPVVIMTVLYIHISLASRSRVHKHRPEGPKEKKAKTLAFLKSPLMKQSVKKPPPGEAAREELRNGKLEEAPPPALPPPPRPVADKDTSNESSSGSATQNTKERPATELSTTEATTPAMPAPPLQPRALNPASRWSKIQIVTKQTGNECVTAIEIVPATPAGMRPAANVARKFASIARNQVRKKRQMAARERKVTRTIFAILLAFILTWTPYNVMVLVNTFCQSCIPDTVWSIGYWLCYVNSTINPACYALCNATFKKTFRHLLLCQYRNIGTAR
Put plainly: M4 (h) functional GPCR assay, antagonist effect, cAMP HTRF. The format is cell-based. Particulars: CHO. The method, then: The cellular and nuclear receptor functional assays were carried out at Eurofins Cerep (Le Bois I’ Eveque, France) following the in-house protocols (catalog items G029-1262, G029-1474, G030-1658, G030-1659, G031-1243, G031-1244, G032-1670, G032-1671, G033-4217, and G033-4212). The experimental methods for the assays were as described in the previous reports and the general methodology is summarized in the Supplementary Information Table S1. Recombinant human Chinese hamster ovary (CHO) cells and rat basophilic leukemic (RBL) cells were transfected with the GPCR genes of interest (hM1R, hM2R, hM3R, hM4R, and hM5R). The functional assay provided the readouts based on the measurements of calcium ion mobilization (for the Gαq/11-coupled receptors) and cAMP level (for the Gαi/o-coupled receptors).
Stable CHO cells expressing the transfected cDNA of human M2 receptors were suspended in a medium containing HBSS buffer complemented with 20-mM HEPES buffer (pH 7.4) and 500-µM IBMX, whereas the stable human M4 receptor cloned CHO cells were distributed in HBSS buffer with 20-mM HEPES/NaOH (pH 7.4), 70-mM NaCl, 5.33-mM KCl, 1.25-mM CaCl2, 0.5-mM MgCl2, 0.41-mM MgSO4, 0.441-mM KH2PO4, 0.3-mM Na2HPO4, 0.1% glucose, and 500-µM IBMX. […] The cAMP level was calculated as the ratio of the signal measured at 665 nm to that measured at 620 nm. […]
Assay Source Stimulus Incubation Measured Detection References […]
(In general: Time-resolved FRET reads energy transfer from a long-lived donor to a nearby acceptor.)

Assay [2] has as its target T2, human M3 muscarinic acetylcholine receptor (hM3R) (Homo sapiens, UniProt P20309).
T2 construct: host or cells: CHO cells
Put plainly: M3 (h) functional GPCR assay, antagonist effect, intracellular Ca2+. The format is cell-based. The settings on record: CHO.

The target in assay [3] is T3, human M2 muscarinic acetylcholine receptor (hM2R) (Homo sapiens, UniProt P08172).
T3 construct: host or cells: CHO cells
T3 sequence (P08172 1-466): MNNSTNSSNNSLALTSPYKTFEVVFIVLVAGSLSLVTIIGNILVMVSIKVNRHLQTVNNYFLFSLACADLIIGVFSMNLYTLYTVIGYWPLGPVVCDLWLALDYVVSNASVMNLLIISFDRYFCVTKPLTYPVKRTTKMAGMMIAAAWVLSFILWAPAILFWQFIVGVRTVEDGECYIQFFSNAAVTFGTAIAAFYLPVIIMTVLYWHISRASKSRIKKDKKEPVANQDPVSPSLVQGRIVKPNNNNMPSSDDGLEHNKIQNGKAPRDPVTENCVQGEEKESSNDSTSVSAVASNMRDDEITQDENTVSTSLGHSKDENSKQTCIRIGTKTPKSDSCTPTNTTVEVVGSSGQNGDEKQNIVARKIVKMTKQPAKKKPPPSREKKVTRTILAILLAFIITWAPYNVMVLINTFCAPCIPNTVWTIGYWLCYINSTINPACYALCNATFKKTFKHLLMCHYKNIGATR
Description: M2 (h) functional GPCR assay, agonist effect, cAMP HTRF. Particulars: 100 µM; % of control response to 3-µM acetylcholine; CHO cells. The format is cell-based.

The target of assay [4] is T4, recombinant human monoamine oxidase B (hMAO-B) (Homo sapiens, UniProt P27338).
T4 sequence (P27338 1-520): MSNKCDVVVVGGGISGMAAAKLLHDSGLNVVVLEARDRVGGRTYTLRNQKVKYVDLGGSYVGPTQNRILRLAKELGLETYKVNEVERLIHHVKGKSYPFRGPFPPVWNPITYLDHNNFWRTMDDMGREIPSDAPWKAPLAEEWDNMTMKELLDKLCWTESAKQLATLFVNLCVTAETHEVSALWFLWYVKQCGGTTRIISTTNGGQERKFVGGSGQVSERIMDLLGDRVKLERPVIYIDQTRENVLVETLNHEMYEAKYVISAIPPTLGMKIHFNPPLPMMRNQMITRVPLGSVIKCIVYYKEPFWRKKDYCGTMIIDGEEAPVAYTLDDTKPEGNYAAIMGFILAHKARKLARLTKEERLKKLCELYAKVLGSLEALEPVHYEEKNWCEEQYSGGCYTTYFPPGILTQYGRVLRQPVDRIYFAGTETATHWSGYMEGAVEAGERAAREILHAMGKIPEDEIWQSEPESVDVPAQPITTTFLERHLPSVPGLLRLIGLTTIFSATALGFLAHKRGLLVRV
Description: hMAO-B inhibition, MAO-Glo chemiluminescent assay. In kind it is biochemical. The settings on record: mean ± SD of triplicate experiments.

T2 sequence (P20309 whole entry): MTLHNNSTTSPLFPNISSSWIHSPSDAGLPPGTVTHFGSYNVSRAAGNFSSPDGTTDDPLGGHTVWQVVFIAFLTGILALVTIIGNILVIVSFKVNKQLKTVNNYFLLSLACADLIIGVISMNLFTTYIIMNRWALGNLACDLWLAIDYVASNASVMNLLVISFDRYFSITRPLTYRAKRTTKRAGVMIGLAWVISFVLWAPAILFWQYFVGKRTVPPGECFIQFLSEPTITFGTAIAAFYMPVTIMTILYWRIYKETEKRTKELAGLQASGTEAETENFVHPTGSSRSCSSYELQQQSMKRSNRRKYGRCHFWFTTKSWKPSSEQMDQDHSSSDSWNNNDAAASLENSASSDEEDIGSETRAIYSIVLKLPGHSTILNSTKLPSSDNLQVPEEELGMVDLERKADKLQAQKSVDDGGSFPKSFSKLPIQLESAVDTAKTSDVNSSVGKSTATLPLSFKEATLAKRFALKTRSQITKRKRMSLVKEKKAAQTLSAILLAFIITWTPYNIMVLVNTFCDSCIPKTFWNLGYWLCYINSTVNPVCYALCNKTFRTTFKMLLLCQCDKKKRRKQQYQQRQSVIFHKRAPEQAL

What is called inhibition is the drop in the measured response relative to a control, in per cent. The IC50 is the concentration that gives 50% inhibition. For `Cc1coc2c1C(=O)C(=O)c1c-2ccc2c(C)cccc12` [Tanshinone I], the results for the inhibition at 100 µM in assay [1] and in assay [2] were 56.1 ± 2.4% and 3.3 ± 11.2%, respectively. Besides, in assay [3], the “% Stimulation, M2” value worked out at 12.6 ± 3.61%. In addition, in assay [4], the IC50 is 24.9 ± 3.82 µM.
